# From patent US12729377B2, “RNAi agents and compositions for inhibiting expression of angiopoietin-like 3 (ANGPTL3), and methods of use” (Arrowhead Pharmaceuticals, Inc., priority 2017, dated 2026)
# Several values for one entry are separate records, joined by “and”; a condition that tells them apart may be missing. Equal values may be shown once. In the oligonucleotide strings, read from the 5' end, every base follows the letter of its sugar. An asterisk marks phosphorothioate; unmarked linkages are phosphodiester. Other units and linkages are bracketed, terminal groups are in braces. A string of capitals states the bases alone. {NAG37} = tridentate N-acetyl-galactosamine targeting ligand, structure (NAG37)s; [invAb] = inverted abasic unit; m = 2'-O-methyl; f = 2'-fluoro
# What was measured:
# Type in all cases: in vivo, cynomolgus macaque (Macaca fascicularis)
# [1] = tested on: ANGPTL3 protein; assay: Example 5: serum ANGPTL3 protein by ELISA in cynomolgus monkeys; settings: for Avg ANGPTL3 protein normalized to pre-treatment, individual animal / Avg ANGPTL3 protein normalized to pre-treatment, by group: 3.0 mg/kg single SC injection on day 1, serum; for Avg ANGPTL3 protein normalized to pre-treatment, by group: group average n=2
# Method: ANGPTL3 RNAi agents were evaluated in cynomolgus monkeys. On day 1, cynomolgus macaque (Macaca fascicularis) primates (also referred to herein as “cynos”) were administered a single subcutaneous injection of 0.3 mL/kg (approximately 2-3 mL volume, depending on animal mass) containing 3.0 mg/kg of ANGPTL3 RNAi agent AD05308 or AD05418, formulated in saline.
# Two (2) cynos in each group were tested (n=2). Blood samples were drawn and serum samples were analyzed on days −37 (pre-dose), −15 (pre-dose), and −1 (pre-dose), 8, 16, 23, 30, and 37. Cynos were fasted overnight prior to each collection. ANGPTL3 protein levels in serum were measured by ELISA assay (R&D Systems), according to the manufacturer's recommendations. The ANGPTL3 protein levels were normalized. For normalization, the level of ANGPTL3 protein for each animal at a time point, was divided by the average pre-treatment level of expression in that animal (in this case at days −37, −15, and −1) to determine the ratio of expression “normalized to pre-treatment.”
# [2] = tested on: ANGPTL3 gene; assay: Example 8: serum HDL in cynomolgus monkeys; settings: 3.0 mg/kg single SC injection day 1, cynos, n=2
# Method: (§1) Additional ANGPTL3 RNAi agents were evaluated in cynomolgus monkeys. On day 1, cynomolgus macaque (Macaca fascicularis) primates (also referred to herein as “cynos”) were administered a single subcutaneous injection of 0.3 mL/kg (approximately 1-2 mL volume, depending on animal mass) containing 3.0 mg/kg of one of ANGPTL3 RNAi agent AD05577, AD05307, AD05488, AD05654, or AD05659, each formulated in saline.
# (§2) Two (2) cynos in each group were tested (n=2). Blood samples were drawn and serum samples were analyzed on days −8 (pre-dose), 1 (pre-dose), 8, 15, 22, 29, and 36. Cynos were fasted overnight prior to each collection. ANGPTL3 protein levels in serum were measured by ELISA assay (R&D Systems), according to the manufacturer's recommendations. Triglycerides, total cholesterol, high-density lipoprotein (HDL), and low-density lipoprotein (LDL) in serum were measured on a Cobas® Integra 400 (Roche Diagnostics), according to the manufacturer's recommendations.
# (§3) The ANGPTL3 protein levels, triglyceride levels, total cholesterol levels, HDL levels, and LDL levels for each animal were normalized. For normalization, the level of ANGPTL3 protein, triglyceride, HDL, and total cholesterol, respectively, for each animal at a time point, was divided by the average pre-treatment level of expression in that animal (in this case at days −8, and 1 (pre-dose)) to determine the ratio of expression “normalized to pre-treatment.”
# [3] = tested on: ANGPTL3 gene; assay: Example 8: serum LDL in cynomolgus monkeys; settings: 3.0 mg/kg single SC injection day 1, cynos, n=2
# Method: as §1, §2, §3
# [4] = tested on: ANGPTL3 gene; assay: Example 8: serum total cholesterol in cynomolgus monkeys; settings: 3.0 mg/kg single SC injection day 1, cynos, n=2
# Method: as §1, §2, §3
# [5] = Day 16, single 3.0 mg/kg subcutaneous, cynomolgus monkeys, 3 mg/kg
# [6] = day 37, single 3.0 mg/kg subcutaneous, cynomolgus monkeys
substance,measurement,setting,value
"AD05418: RNAi agent duplex: antisense AM07159-AS, sense AM07158-SS (antisense mU*fU*mU*fGmAfAmUfUmAfAmUfGmUfCmCfAmUfGmGfG*mU; sense {NAG37}*[invAb]*mAmCmCmCmAmUmGmGfAfCfAmUmUmAmAmUmUmCmAmAmA*[invAb])","Avg ANGPTL3 protein normalized to pre-treatment, individual animal","[1]; Day 8, Cyno A",0.585
same,"Avg ANGPTL3 protein normalized to pre-treatment, individual animal","[1]; Day 8, Cyno B",0.503
same,"Avg ANGPTL3 protein normalized to pre-treatment, by group",[1]; Day 8,0.544
same,"Avg ANGPTL3 protein normalized to pre-treatment, individual animal","[1]; Day 16, Cyno A",0.358
same,"Avg ANGPTL3 protein normalized to pre-treatment, individual animal","[1]; Day 16, Cyno B",0.309
same,"Avg ANGPTL3 protein normalized to pre-treatment, by group",[1]; Day 16,0.334
same,"normalized ANGPTL3 protein level, individual animals",[1]; [5],0.358 and 0.309
same,"reduction in ANGPTL3 protein, individual animals",[1]; [5],approximately 64% and ~69%
same,"Avg ANGPTL3 protein normalized to pre-treatment, individual animal","[1]; Day 23, Cyno A",0.260
same,"Avg ANGPTL3 protein normalized to pre-treatment, individual animal","[1]; Day 23, Cyno B",0.340
same,"Avg ANGPTL3 protein normalized to pre-treatment, by group",[1]; Day 23,0.300
same,"Avg ANGPTL3 protein normalized to pre-treatment, individual animal","[1]; Day 30, Cyno A",0.311
same,"Avg ANGPTL3 protein normalized to pre-treatment, individual animal","[1]; Day 30, Cyno B",0.467
same,"Avg ANGPTL3 protein normalized to pre-treatment, by group",[1]; Day 30,0.389
same,"Avg ANGPTL3 protein normalized to pre-treatment, individual animal","[1]; Day 37, Cyno A",0.212
same,"Avg ANGPTL3 protein normalized to pre-treatment, individual animal","[1]; Day 37, Cyno B",0.328
same,"Avg ANGPTL3 protein normalized to pre-treatment, by group",[1]; Day 37,0.270
same,reduction in ANGPTL3 protein compared to pre-treatment,"[1]; all measured time points, single 3.0 mg/kg subcutaneous, cynomolgus monkeys",reduction
same,average ANGPTL3 protein normalized to pre-treatment,[1]; [6],0.270
same,average reduction in ANGPTL protein levels,[1]; [6],approximately 73%
"AD05488: RNAi agent duplex: antisense AM07235-AS, sense AM07234-SS (antisense mU*fA*mC*fUmGfAmUfCmAfAmAfUmAfUmGfUmUfGmAfG*mC; sense {NAG37}*[invAb]*mGmCmUmCmAmAmCmAfUfAfUmUmUmGmAmUmCmAmGmUmA*[invAb])",Average HDL Normalized to Pre-Treatment,[2]; Day 8,0.832
same,Average HDL Normalized to Pre-Treatment,[2]; Day 15,0.695
same,Average HDL Normalized to Pre-Treatment,[2]; Day 22,0.688
same,Average HDL Normalized to Pre-Treatment,[2]; Day 29,0.657
same,Average HDL Normalized to Pre-Treatment,[2]; Day 36,0.622
same,Average LDL Normalized to Pre-Treatment,[3]; Day 8,0.934
same,Average LDL Normalized to Pre-Treatment,[3]; Day 15,0.926
same,Average LDL Normalized to Pre-Treatment,[3]; Day 22,0.891
same,Average LDL Normalized to Pre-Treatment,[3]; Day 29,0.872
same,Average LDL Normalized to Pre-Treatment,[3]; Day 36,0.805
same,Avg Total Chol normalized to pre-treatment,[4]; Day 8,0.840
same,Avg Total Chol normalized to pre-treatment,[4]; Day 15,0.779
same,Avg Total Chol normalized to pre-treatment,[4]; Day 22,0.743
same,Avg Total Chol normalized to pre-treatment,[4]; Day 29,0.674
same,Avg Total Chol normalized to pre-treatment,[4]; Day 36,0.722
